Legend:
[1] = tested on: Plants comprising Brassica Event MON94100; assay: Volunteer control: greenhouse plant injury rate after synthetic auxin herbicide spray; type: in vivo; conditions: for Plant Injury Rates (%) After Herbicide Spray, MON94100: sprayed at V3 stage, 9 days after treatment, greenhouse
Protocol: (§1) Plants comprising Brassica Event MON94100 and non-transgenic plants of the same germplasm as a control were grown in a greenhouse in a randomized complete block design. Plants were sprayed at V3 stage with one of four synthetic auxin herbicides: dicamba (as XtendiMax®), 2,4-D amine 4 (dimethylamine salt of 2,4-dichlorophenoxyacetic acid), bromoxynil (3,5-dibromo-4-hydroxybenzonitrile as Buctril®), and MCPA amine (4-chloro-2-methylphenoxy acetic acid) in a randomized pattern. Plant injury rate was taken at 9 days after treatment.

[2] = tested on: non-transgenic plants of the same germplasm; assay: as above; type: in vivo, Brassica; conditions: for Plant Injury Rates (%) After Herbicide Spray, Control: sprayed at V3 stage, 9 days after treatment, greenhouse
Protocol: as §1

Compound | Plant Injury Rates (%) After Herbicide Spray, MON94100 ([1]; 1× rate) [%] | Plant Injury Rates (%) After Herbicide Spray, MON94100 ([1]; 2× rate) [%] | Plant Injury Rates (%) After Herbicide Spray, Control ([2]; 1× rate) [%] | Plant Injury Rates (%) After Herbicide Spray, Control ([2]; 2× rate) [%] | Plant injury rate ([1]; commercial rate (1X), sprayed at V3, 9 days after treatment, plants comprising Brassica Event MON94100) | Plant injury rate ([2]; commercial rate (1X), sprayed at V3, 9 days after treatment, control plants) [%]
CNC.O=C(O)COc1ccc(Cl)cc1Cl [2,4-D amine, dimethylamine salt of 2,4-dichlorophenoxyacetic acid] | 74.5 | 83.5 | 73.0 | 82.0 |  | 
Cc1cc(Cl)ccc1OCC(=O)O [MCPA, 4-chloro-2-methylphenoxy acetic acid] | 73.0 | 86.5 | 71.5 | 85.0 |  | 
N#Cc1cc(Br)c(O)c(Br)c1 [bromoxynil, 3,5-dibromo-4-hydroxybenzonitrile] | 80.5 | 90.3 | 83.3 | 90.6 |  | 
COc1c(Cl)ccc(Cl)c1C(=O)O [dicamba, 3,6-dichloro-2-methoxybenzoic acid] | 0.0 |  | 21.3 |  | no injury | 21.3

From patent US20240318196A1, “BRASSICA EVENT MON94100 AND METHODS OF USE THEREOF” (Monsanto Technology LLC, priority 2018, published 2024)
